Here are results for one compound from patent US20240238398A1, “IMMUNOGENIC COMPOSITION” (GRIFFITH UNIVERSITY, priority 2021, published 2024).

Test [1] concerns B. microti. Nature of the test: In vivo assessment of chemically attenuated B. microti pRBCs in BALB/c mice. The settings on record: intravenous inoculation. As for the experimental part:
FIG. 1: In vivo assessment of chemically attenuated B. microti pRBCs. A and B. To assess attenuation of B. microti parasitized red blood cells (pRBCs), BALB/c mice (n=5/group) were injected intravenously with 10^6 pRBCs treated with 2 μM, 200 nM or 20 nM of Tafuramycin-A (TF-A). Control mice received 10^6 untreated pRBCs. C and D. The impact of parasite dose on protection induced by a chemically attenuated whole parasite B. microti vaccine. BALB/c mice (n=5/group) were immunized intravenously on days 0, 14 and 28 with 10^4, 10^5 or 10^6 B. microti parasitized red blood cells (pRBCs) that were chemically attenuated with 2 μM of Tafuramycin-A (TF-A). Control mice received 10^6 TF-A treated normal mouse red blood cells (mRBCs). Mice were challenged with 10^6 B. microti pRBCs two weeks after the final immunization. (A and C: Parasitemias were monitored by microscopy post challenge. B and D: Mice were assessed for signs of disease and were scored based on defined criteria listed on a clinical scoresheet. Data are expressed as mean±SEM). […]
Chemical attenuation of B. microti with Tafuramycin-A (TF-A) was conducted as described previously (Good et al., 2013). […] A cell count was performed using a haemocytometer, the immunizing dose calculated, and the blood was resuspended in the required volume of PBS for injection. […]

Test [2] deals with B. microti. Briefly: Assessment of chemically attenuated B. microti pRBCs in SCID mice. Format: in vivo. Particulars: 10^6 B. microti pRBCs treated with 2 μM TF-A, intravenous, immunodeficient SCID mice. As for the experimental part:
FIG. 5: Assessment of chemically attenuated B. microti pRBCs in BALB/c and SCID mice. Related to FIGS. 1 and 2. BALB/c and SCID mice (n=5/group) were injected intravenously with 10^6 B. microti parasitized red blood cells (pRBCs) that were chemically attenuated with 2 μM of Tafuramycin-A (TF-A). Control mice received pRBCs that were not treated with TF-A. A. Parasitemia was monitored by microscopy post challenge. B. Mice were assessed for signs of disease and were scored based on defined criteria listed on a clinical scoresheet. Data are expressed as mean±SEM.
Chemical attenuation of B. microti with Tafuramycin-A (TF-A) was conducted as described previously (Good et al., 2013). Blood from mice infected with B. microti (as a source of pRBCs) and from naïve mice (as a source of mRBCs) were collected into EDTA tubes. TF-A was diluted to a 20 μM final concentration in RPMI-1640 with glutamine and added to a 25 cm^2 vented tissue culture flask to give a final TF-A concentration of 2 μM, 200 nM or 20 nM as required. One hundred microlitres of blood containing B. microti pRBCs or mRBCs was added into each flask, as required. […] A cell count was performed using a haemocytometer, the immunizing dose calculated, and the blood was resuspended in the required volume of PBS for injection. […]

Turning to `COc1cc2cc(C(=O)N3CC(CCl)c4c3cc(O)c3ccoc43)[nH]c2c(OC)c1OC` (stereo not shown) [TF-A, seco-iso-cyclopropylfurano[2,3-e]indoline-TMI], the “microscopically patent parasitemia and clinical signs of infection” value with B. microti [1] (10^6 B. microti pRBCs attenuated with 200 nM TF-A) is given as “did not develop microscopically patent parasitemia nor clinical signs of infection”. For the same compound, the “microscopically patent parasitemia and clinical signs of infection” value in the test with B. microti [1] (10^6 B. microti pRBCs attenuated with 2 μM TF-A) is reported as “did not develop microscopically patent parasitemia nor clinical signs of infection”. In addition, in the test with B. microti [2], the “signs of clinical disease” value is reported as “remained without signs of clinical disease” and the “time microscopically clear of parasites” value is listed as 70 days.
